Laboratory results as given in patent US8785402B2, “Compositions and assays for treatment and diagnosis of helicobacter pylori infection and conditions” (Academia Sinica, priority 2009, dated 2014).
“Also recorded” adds a separate entry of the source.

Legend:
[1] = test system: Le^x antigen in H. pylori; assay: Anti-Le^x immunoblot of H. pylori lysates after co-culture with Capan 1 cells; type: cell-based, Helicobacter pylori
Protocol: (§1) FIGS. 11A-11D collectively show immunoblot analysis of H. pylori-infected Capan 1 and AGS cells with mouse monoclonal anti-Le^x antigen. Capan 1 and AGS cells were infected with different H. pylori strains (from DU-152 to DU-157) that were clinical isolates from six different patients with duodenal ulcer (DU). PBS represents a negative control in the absence of H. pylori. The co-culture was maintained for 12 h at an MOI of ˜400:1. In the parallel experiments, Capan 1 (11a) and AGS cells (11c) were infected under the same conditions. The effect of α-L-fucosidase was evaluated by addition of 100 μM FNJ to the co-cultures of Capan 1 (11b) and AGS cells (11d) with various H. pylori strains. The bacterial cells were collected and lysed for Le^x analysis.
(§2) The secretion of FUCA2 directly results in the extracellular production of L-fucose residues that are then incorporated into H. pylori. It is important to determine if the L-fucose-related biosynthesis is affected at the same time. […] The H. pylori cell lysates were analyzed by SDS-PAGE 12 h after infection and immunoblotted with a Le^x-specific monoclonal antibody. […] In contrast, Le^x-containing glycoproteins were detected in substantial amounts without FNJ treatment (FIGS. 11A and 11C, corresponding to H. pylori-infected Capan 1 and AGS cells, respectively).

[2] = test system: Le^x antigen in H. pylori; assay: Anti-Le^x immunoblot of H. pylori lysates after co-culture with AGS cells; type: cell-based, Helicobacter pylori; conditions: 100 μM FNJ, DU-152 to DU-157, 12 h, MOI ~400:1
Protocol: as §1, §2

H. pylori = assay: Adherence of H. pylori to host cells on treatment of infected cells; type: cell-based, Helicobacter pylori; conditions: summary statement; host cells not specified
Source text: CagA of H. pylori was the first reported bacterial virulence protein translocated by a type IV secretion system (Stein, et al., Proc. Natl. Acad. Sci. USA 2000, 97:1263-1268). Translocated CagA protein can be detected inside host cells soon after H. pylori attachment. The adhesion efficiency of H. pylori can be thus measured by monitoring the level of translocated CagA inside host cells. Four different epithelial cell lines were chosen for the study, namely mock-transfected Capan 1, Capan 1-FUCA2 K.D., Capan 1, and AGS cells. Isogenic vacA (CagA+), cagA (CagA−) mutants, and clinical isolates from patients with gastritis (GS), duodenal ulcer (DU), and gastric cancer (GC) were selected for co-culturing with the four epithelial cell lines. The epithelial cell lysates were analyzed by SDS-PAGE 6-8 h after infection and immunoblotted with a CagA-specific monoclonal antibody. CagA (˜140 kDa) was detected when mock-transfected Capan 1 cells were infected with each different H. pylori strain (FIG. 7B). Nonetheless, CagA was not detected upon Capan 1-FUCA2 K.D. infection with the different H. pylori strains, with the exception of GS (FIG. 7C). […] In contrast, CagA was detected in substantial amounts without FNJ treatment (FIGS. 8A and 8C, corresponding to the results of Capan 1 and AGS cells, respectively).

[3] = test system: H. pylori-infected Capan 1 cells; assay: Transfer of 6-azido-L-fucose from Capan 1 host cells to H. pylori; type: cell-based, human; conditions: Capan 1, 100 μM FNJ
Source text: (§3) A considerable proportion of H. pylori in the stomach is located at the epithelial mucosa (Schreiber S, et al. Proc. Natl. Acad. Sci. USA 2004, 101:5024-5029) where there are various fucose-containing oligosaccharides including Lewis antigens. To determine if H. pylori acquires L-fucose from host cells, similar to the interaction between B. thetaiotaomicron and small intestine cells (Hooper, et al. Proc. Natl. Acad. Sci. USA 1999, 96:9833-9838), the click chemistry-based fluorogenic labeling method developed by Wong and coworkers (Sawa M, et al. Proc. Natl. Acad. Sci. USA 2006, 103:12371-12376) was applied to detect fucosylated glycoconjugates. […]
(§4) CagA of H. pylori was the first reported bacterial virulence protein translocated by a type IV secretion system (Stein, et al., Proc. Natl. Acad. Sci. USA 2000, 97:1263-1268). Translocated CagA protein can be detected inside host cells soon after H. pylori attachment. The adhesion efficiency of H. pylori can be thus measured by monitoring the level of translocated CagA inside host cells. […] The epithelial cell lysates were analyzed by SDS-PAGE 6-8 h after infection and immunoblotted with a CagA-specific monoclonal antibody. CagA (˜140 kDa) was detected when mock-transfected Capan 1 cells were infected with each different H. pylori strain (FIG. 7B). […]

human FUT3 and FUT6 = assay: Anti-Fut 3/6 immunoblot of Capan 1 cells infected with H. pylori; type: cell-based; conditions: Capan 1 cells pre-treated with H. pylori and 50 nM FNJ for 4 h
Protocol: Lane A, extract of Capan 1 cells. Lane B, extract of Capan 1 cells pre-treated with H. pylori for 4 h. Lanes C, C′, duplicate independent experiments of extract of Capan 1 cells pre-treated with H. pylori and 50 nM of the α-L-fucosidase inhibitor, FNJ, for 4 h.
L-Fucose is a likely source of utilizable carbon and energy because it is located at the termini of mammalian glycoconjugates. L-Fucose is an abundant component of many host gastric mucosa glycoconjugates (Madrid, et al., J. Histochem. Cytochem 1998, 46:1311-1320) that are constitutively synthesized by host cells. Thus, the “request” from H. pylori to manufacture fucosylated glycans may require the host to activate translation of one or more of its fucosyltransferase proteins.

[4] = test system: H. pylori-infected AGS cells; assay: Immunoblot of translocated CagA (adhesion efficiency of H. pylori) in infected AGS cells; type: cell-based, human; conditions: 100 μM FNJ
Protocol: (§5) FIG. 8A-8D collectively provide immunoblot analysis of epithelial cells infected with H. pylori using mouse monoclonal anti-CagA. Capan 1 and AGS cells were infected with different H. pylori strains, including CagA^+ and CagA^−, and various clinical isolates from patients with gastritis (GS), duodenal ulcer (DU) and gastric cancer (GC). PBS represents the negative control. The co-culture was maintained for 6-8 h at an MOI of ˜200:1. In the parallel experiments, Capan 1 (a) and AGS cells (c) were infected under the same conditions. The effect of α-L-fucosidase was evaluated by addition of 100 μM FNJ to the co-cultures of Capan 1 (b) and AGS cells (d) with various H. pylori strains.
(§6) FIG. 9 illustrates immunoblot analysis of H. pylori-infected epithelial cells with mouse monoclonal anti-CagA. Capan 1 and AGS cells were infected with different H. pylori strains that were clinical isolates from five different patients with duodenal ulcer (DU). PBS was used as a negative control in the absence of H. pylori. The co-culture was maintained for 6-8 h at an MOI of ˜200:1. […] The effect of α-L-fucosidase was evaluated by addition of 100 μM of the α-L-fucosidase inhibitor, FNJ, to co-cultures of Capan 1 (b) and AGS cells (d) with the indicated H. pylori strains. […]
as §4, with “7B). Nonetheless, CagA was not detected upon Capan 1-FUCA2 K.D. infection with the different H. pylori strains, with the exception of GS (FIG. 7C).” for “7B).”

[5] = test system: H. pylori-infected Capan 1 cells; assay: Immunoblot of translocated CagA (adhesion efficiency of H. pylori) in infected Capan 1 cells; type: cell-based, human; conditions: Capan 1, 100 μM FNJ
Protocol: as §5, §6
as §4, with “7B). Nonetheless, CagA was not detected upon Capan 1-FUCA2 K.D. infection with the different H. pylori strains, with the exception of GS (FIG. 7C).” for “7B).”

[6] = test system: H. pylori-infected AGS cells; assay: Transfer of 6-azido-L-fucose from AGS host cells to H. pylori; type: cell-based, human; conditions: 100 μM FNJ
Source text: as §3, §4

[7] = DU strains DU-152, DU-153, DU-154, DU-155, DU-157
[8] = DU- or GC-specific H. pylori strains, 6-8 h, MOI ~200:1
[9] = GS-specific H. pylori strain, 6-8 h

CC1NC(CN)C(O)C(O)C1O (stereo not shown) [FNJ, 1-aminomethyl-1-deoxy-fuconojirimycin]
Le^x-expression level in H. pylori ([1]; Capan 1, 100 μM FNJ, DU-152 to DU-157, 12 h, MOI ~400:1): considerably reduce; also recorded: significantly less | level of Le^x-containing glycoproteins in H. pylori ([1]; summary statement, host cells not specified): significantly reduced | Le^x-expression level in H. pylori [2]: considerably reduce; also recorded: significantly less | adherence of H. pylori to host cells (H. pylori): effectively prevented adherence | transfer of 6-azido-L-fucose from host cells to H. pylori [3]: considerably reduce | expression of human FUT3 and FUT6 (human FUT3 and FUT6): decreased substantially | CagA present in host cells [4, 7]: no longer present | CagA detected in host cells [4, 8]: consistent with those obtained in AGS cells | level of CagA [4, 9]: not affected | CagA present in host cells [5, 7]: no longer present | CagA detected in host cells [5, 8]: no or little CagA was detected | level of CagA [5, 9]: not affected | transfer of 6-azido-L-fucose from host cells to H. pylori [6]: considerably reduce
